Experiment [1] has as its system human tumor epithelial breast cell lines or mouse mammary tumor cell line. The following applies: activation of alpha-adrenoceptors; Vazquez et al. 2006, Bruzzone et al. 2008; cited from earlier work.
The next experiment concerns pancreatic cancer cells. The note with it: Shen et al. 2008; cited from earlier work.
Experiment [2] relates to Albino hairless SKH1-hr mice. The following applies: for Median Week to Tumor (≧1 mm): 40 weeks treatment + 12 weeks observation, time at which one-half of group has one or more qualifying tumors; for Tumor Yield (≧1 mm): average number of tumors per survivor. The method, then:
Albino hairless SKH1-hr mice (36/sex/group) were treated for 40 weeks with UVR and brimonidine gel or vehicle according to the design in table 11. […] Topical treatments were performed approximately one hour before UVR on Monday, Wednesday and Friday of each week and approximately one hour after UVR Tuesday and Thursday of each week.

[3] abbreviates: 0.18% topical + 600 RBU/week UVR.

Like-named read-outs stand apart in the source and are kept apart here. Some results are limits rather than exact numbers.

This is an account of results in US9554988B2, “Method for preventing or treating skin tumor” (Galderma Research & Development, priority 2010, dated 2017).

For the molecule `Clc1cccc(Cl)c1N=C1NCCN1` [clonidine], the “Proliferation of tumor cell lines” value in experiment [1] is “enhanced proliferation”.

Take `Cc1cccc([C@H](C)c2cnc[nH]2)c1C` [dexmedetomidine]: the “Proliferation of tumor cell lines” value in experiment [1] is reported as “enhanced proliferation”.

Regarding `Cc1cc(C(C)(C)C)c(O)c(C)c1CC1=NCCN1` [oxymetazoline], the “Proliferation of tumor cell lines” value in experiment [1] is “enhanced proliferation”.

As for `COC(=O)[C@@H]1[C@H]2C[C@H]3c4[nH]c5ccccc5c4CCN3C[C@@H]2CC[C@@H]1O` [yohimbine], in the experiment with pancreatic cancer cells, the “Apoptosis of pancreatic cancer cells” value is recorded as “induced apoptosis” and the “Proliferation of pancreatic cancer cells” value is reported as “inhibited the proliferation”.

Turning to Brimonidine tartrate, in experiment [2] (setting [3]), the “Reduction of tumor yield (≧1 mm) compared to the vehicle group” value (from here on “Reduction of tumor yield (≧1 mm)”) is recorded as 1.7 fold, the “Median Week to Tumor (≧1 mm)” value came out at 48 Week and the “Tumor Yield (≧1 mm)” value was 2.40 tumors per survivor. Also, in experiment [2] (1% topical + 600 RBU/week UVR), the “Members of the group that acquired one or more qualifying tumors (≧1 mm) within the 52-week study period” value is “less than one-half of the members of the groups acquired one or more qualifying tumors”, the “Reduction of tumor yield (≧1 mm)” value is listed as 4.7 fold, the “Median Week to Tumor (≧1 mm)” value is more than 52 Week and the “Tumor Yield (≧1 mm)” value came to 0.85 tumors per survivor. In experiment [2] (2% topical + 600 RBU/week UVR), the “Members of the group that acquired one or more qualifying tumors (≧1 mm) within the 52-week study period” value is recorded as “less than one-half of the members of the groups acquired one or more qualifying tumors”, the “Reduction of tumor yield (≧1 mm)” value was 8.1 fold, the “Median Week to Tumor (≧1 mm)” value was more than 52 Week and the “Tumor Yield (≧1 mm)” value came out at 0.49 tumors per survivor. Also, the “UV-induced skin tumor formation” value in experiment [2] (topical 0.18%, 1% and 2% concentrations) is recorded as “dose-dependent delay”. Also, the “Sizes of tumors (tumor prevalence, FIG. 1)” value in experiment [2] (with increasing concentration, perceptible, 1 mm, 2 mm, 4 mm tumors, sexes combined) is listed as “sizes of tumors were also reduced”.
